Assay results published in patent US12083115B2, “Methods for treating neurological symptoms associated with lysosomal storage diseases” (Genzyme Corporation, priority 2020, dated 2024).

Key:
[1] = tested on: GM3 expression in B16 mouse melanoma cells; assay: GM3 fluorescent-linked immunosorbent assay (FLISA), B16; assay type: cell-based; conditions: 48 hours
Text: Inhibition of glucosylceramide synthase activity can be measured with one or more assays. A first assay is a microsomal assay that directly measures the conversion of ceramide to glucosylceramide by HPLC. Microsomes are a source of glucosylceramide synthase activity in the microsomal assay. A second assay is a cell based, phenotypic assay that monitors cell surface expression of the downstream lipid GM3 by antibody mediated immunofluorescence. Specific protocols are provided below.
This is a phenotypic assay that measures GM3 expression in B16 mouse melanoma or C32 human melanoma cells following treatment with test compounds. Cell surface GM3 expression is determined by antibody mediated fluorescence.
Compounds are diluted in media and plated in 384 well plates in DMSO. B16 and C32 cells are assayed at densities of 20,000 cells/ml and 62,500 cells/ml, respectively, per well. Each titration curve contains 10 points that are assayed in duplicate on each test run. The plates are incubated for 48 hours at 37° C., 5% CO2, and are then washed once with TBS. Anti-GM3 antibody is added to each well and the plates are then incubated for an additional one hour at room temperature. Plates are subsequently washed twice and incubated for an additional hour with the labeled secondary antibody. Following the final incubation, the plates are washed twice and the fluorescence at λex=D640/20 nm and λem=657 nm is detected on a fluorescent reader.
The results of the microsomal assays are expressed as “GCS IC50,” which represents the concentration of the compound causing 50% inhibition of glucosylceramide synthase activity. The results of the cell-based assays are expressed as “GM3 B16 IC50” or “GM3 C32 IC50” for the B16 assay and the C32 assay, respectively. These values represent the concentration of the compound causing 50% inhibition of GM3 expression on the cell surface.

[2] = tested on: adult patients with Gaucher disease Type 3; assay: Clinical study in GD-3 patients: vMRI brain tissue volume (TBM analysis); assay type: in vivo, human; conditions: for Group A mean change in volume from Baseline to Week 52: Group A (eight patients), 15 mg/day + imiglucerase; for Patient 5 change in volume from Baseline to Week 52: Patient 5 (Compound 2 below LLOQ after 52 weeks)
Text: Neurological function was further evaluated using volumetric magnetic resonance imaging (vMRI). The vMRI data was collected at screening sessions at baseline and after 52 weeks of the treatment regime for eight patients (“Group A”) and an additional isolated patient (Patient 5). Group A corresponds to the eleven patients described above, excluding Patient 5 and two other patients lacking analyzable vMRI data.
vMRI data was obtained and subsequently analyzed using FreeSurfer anatomic parcellation and a Tensor-Based Morphometry (TBM) analysis cycle. FreeSurfer is an opensource software package for the analysis and visualization of structural and functional neuroimaging data developed by the Laboratory for Computational Neuroimaging. TBM analysis (also known as Jacobian Integration) consists in estimating the volume changes as captured within the deformation fields resulting from applying a symmetric deformable registration technique between a pair of MR scans (baseline and follow-up), using a non-linear symmetric log-demons deformation technique using robust cross-correlation metric to ensure invertibility of the transformation (symmetric process). The deformation field is then analyzed by computing the determinant of its Jacobian matrix, which is a measure of local volume change. An integration of the determinant over a region of interest provides an estimation of the change rate of the volume of this brain region over time.
The overall pipeline takes as input a baseline (BL) and a follow-up (FU) image and consists of the following steps: • 1. Preprocessing and reformatting; • 2. Segmentation of baseline (BL) and follow-up (FU) using FreeSurfer; • 3. Multi-resolution rigid and affine registration of FU and BL to midspace; • 4. Symmetric deformable nonlinear registration between FU and BL; • 5. Jacobian image computation; • 6. Voxel-wise volume change computation; • 7. Region-wise volume change integration; and • 8. Output for the changes for regions of interest specified for the study.

[3] = tested on: plasma GM3 (GM3 ganglioside); assay: Study 2: plasma GM3 pharmacodynamics; assay type: in vivo, human
Description: The study enrolled and randomized 36 healthy adults (19 men and 17 women) (n=9 each to group).
Pharmacodynamic endpoints (plasma GL-1, GL-3, and GM3 concentrations) were assessed on Days 1-5, 8, 11, 13, and 14, at 0 hours […]; and on Day 15, at 24 hours after the Day 14 dose.

[4] = tested on: healthy, human volunteers; assay: Phase 1 studies: safety profile; assay type: in vivo
Description: Compound 2 is also known as venglustat.
In all studies, safety profile was assessed by monitoring treatment-emergent adverse events (TEAEs) through 10 days after last dose of study medication, including serious adverse events [SAEs]), ECG monitoring, laboratory values, and physical examinations.

[5] = tested on: adult patients with Gaucher disease Type 3; assay: Clinical study in GD-3 patients: ataxia, SARA scale; assay type: in vivo, human; design: key to SARA Cumulative Score, Average Score excluding Patient 4 / SARA Cumulative Score / SARA Cumulative Score, Average Score: SARA, eight ataxia attributes summed, 0-40 scale; conditions: for SARA Cumulative Score: 15 mg/day + imiglucerase; for SARA Cumulative Score, Average Score: screening 2.83

CC(C)(NC(=O)O[C@@H]1CN2CCC1CC2)c1csc(-c2ccc(F)cc2)n1 [Compound 2, (S)-quinuclidin-3-yl 2-(2-(4-fluorophenyl)thiazol-4-yl)propan-2-ylcarbamate]
IC50 [1]: 107 µM | whole brain tissue volume ([2]; Group A, 52 weeks, FIG. 1): overall increase in whole brain tissue volume | Group A mean change in volume from Baseline to Week 52 ([2]; Left Cuneus): +37.16 mm^3 | Patient 5 change in volume from Baseline to Week 52 ([2]; Left Cuneus): −23.9 mm^3 | Group A mean change in volume from Baseline to Week 52 ([2]; Left Entorhinal Cortex): +34.53 mm^3 | Patient 5 change in volume from Baseline to Week 52 ([2]; Left Entorhinal Cortex): +41.4 mm^3 | Group A mean change in volume from Baseline to Week 52 ([2]; Left Lingual): +50.08 mm^3 | Patient 5 change in volume from Baseline to Week 52 ([2]; Left Lingual): −60.0 mm^3 | Group A mean change in volume from Baseline to Week 52 ([2]; Left Pericalcarine Lobe): +18.46 mm^3 | Patient 5 change in volume from Baseline to Week 52 ([2]; Left Pericalcarine Lobe): −29.2 mm^3 | Group A mean change in volume from Baseline to Week 52 ([2]; Left Putamen): +94.70 mm^3 | Patient 5 change in volume from Baseline to Week 52 ([2]; Left Putamen): −51.7 mm^3 | whole brain volume ([2]; Patient 5 (did not successfully undergo the treatment regime), 52 weeks, FIG. 1): decrease in whole brain volume | Group A mean change in volume from Baseline to Week 52 ([2]; Right Accumbens Area): +12.86 mm^3 | Patient 5 change in volume from Baseline to Week 52 ([2]; Right Accumbens Area): −52.1 mm^3 | Group A mean change in volume from Baseline to Week 52 ([2]; Right Amygdala): +60.78 mm^3 | Patient 5 change in volume from Baseline to Week 52 ([2]; Right Amygdala): −63.4 mm^3 | Group A mean change in volume from Baseline to Week 52 ([2]; Right Postcentral Lobe): +91.66 mm^3 | Patient 5 change in volume from Baseline to Week 52 ([2]; Right Postcentral Lobe): −63.4 mm^3 | Group A mean change in volume from Baseline to Week 52 ([2]; Right Putamen): +97.84 mm^3 | Patient 5 change in volume from Baseline to Week 52 ([2]; Right Putamen): −63.1 mm^3 | Mean plasma GM3 level, % of baseline ([3]; Day 15, 5-mg dose group): 42.7 % of baseline | Mean plasma GM3 level, % of baseline ([3]; Day 15, 10-mg dose group): 49.4 % of baseline | subjects with GM3 below the LLOQ ([3]; Day 15, 10-mg dose group): 1 subjects | Mean plasma GM3 level, % of baseline ([3]; Day 15, 20-mg dose group): 57.8 % of baseline | subjects with GM3 below the LLOQ ([3]; Day 15, 20-mg dose group): 2 subjects | start day of maximal sustained GM3 decreases ([3]; all Compound 2 dose groups): 13 days | Vital signs ([4]; all Phase 1 studies): no relevant changes from baseline | hematologic or biochemical abnormalities ([4]; all Phase 1 studies): No clinically relevant hematologic or biochemical abnormalities | deaths, SAEs, severe TEAEs, TEAEs leading to study discontinuation ([4]; all Phase 1 studies, through 10 days after last dose): no deaths, SAEs, severe TEAEs, or TEAEs leading to study discontinuation | ECG parameters ([4]; single ascending dose and food effect studies, multiple dose study: no statistically significant change versus placebo): no relevant changes | patients with positive correlation between reduction in CSF GL-1 and SARA score ([5]; 52 weeks, 11 patients): 8 of 11 | patients showing improvements in ataxia ([5]; 52 weeks, N = 6, 15 mg/day + imiglucerase): 5 of 6 | SARA Cumulative Score ([5]; Patient 1, Week 26, screening 3.0): 1.0 | SARA Cumulative Score ([5]; Patient 2, Week 26, screening 3.0): 2.0 | SARA Cumulative Score ([5]; Patient 2, Week 52, screening 3.0): 1.5 | SARA Cumulative Score ([5]; Patient 3, Week 26, screening 3.5): 0.0 | SARA Cumulative Score ([5]; Patient 3, Week 52, screening 3.5): 0.0 | SARA stance score ([5]; Patient 4, Week 26 (baseline 1)): 1 | SARA Cumulative Score ([5]; Patient 4, Week 26, screening 3.0): 5.0 | SARA stance score ([5]; Patient 4, Week 52 (baseline 1; left knee pain, injured toe)): 5 | SARA Cumulative Score ([5]; Patient 6, Week 26, screening 4.0): 2.0 | SARA Cumulative Score ([5]; Patient 6, Week 52, screening 4.0): 3.0 | SARA Cumulative Score ([5]; Patient 7, Week 26, screening 5.5): 7.5 | SARA Cumulative Score ([5]; Patient 7, Week 52, screening 5.5): 5.0 | SARA Cumulative Score ([5]; Patient 8, Week 26, screening 2.0): 0.5 | SARA Cumulative Score ([5]; Patient 8, Week 52, screening 2.0): 0 | SARA Cumulative Score ([5]; Patient 9, Week 26, screening 0.0): 0.0 | SARA Cumulative Score ([5]; Patient 9, Week 52, screening 0.0): 0.0 | SARA Cumulative Score ([5]; Patient 10, Week 26, screening 2.0): 2.0 | SARA Cumulative Score ([5]; Patient 10, Week 52, screening 2.0): 1.0 | SARA Cumulative Score ([5]; Patient 11, Week 26, screening 3.0): 3.0 | SARA Cumulative Score ([5]; Patient 11, Week 52, screening 3.0): 2.0 | SARA Cumulative Score, Average Score ([5]; Patients 1-6, Week 26): 1.67 | SARA Cumulative Score, Average Score ([5]; Patients 1-6, Week 52): 2.00 | SARA Cumulative Score, Average Score excluding Patient 4 ([5]; Week 26, screening 2.80): 1.00 | patients exhibiting an improvement in ataxia ([5]; Week 52, Excluding Patient 5): 4 out of 5 | patients exhibiting an improvement in ataxia ([5]; Week 52, five new patients excluding Patient 9): 4 out of 4 | gait on videotaped straight-line walk ([5]; two patients, week 26 and week 52 compared to baseline): steadier, better coordinated, and faster gait
